Laboratory results: patent US10202361B2, “Pyridazinones as herbicides” (E I DU PONT DE NEMOURS AND COMPANY, priority 2014, dated 2019)

Experiments:
Experiment in all cases: Test E pre-/postemergence greenhouse herbicide test
Type in all cases: in vivo
corn (Zea mays) = conditions: scale 0 to 100
Source text: (§1) Seeds of plant species selected from corn (Zea mays), soybean (Glycine max), lambsquarters (Chenopodium album), poinsettia, wild (wild poinsettia, Euphorbia heterophylla), pigweed, palmer (palmer pigweed, Amaranthus palmeri), waterhemp (common waterhemp, Amaranthus rudis), surinam grass (Brachiaria decumbens), crabgrass, large (large crabgrass Digitaria sanguinalis), crabgrass, Brazil (Brazilian crabgrass, Digitaria horizontalis), panicum, fall (fall panicum, Panicum dichotomiflorum), foxtail, giant (giant foxtail, Setaria faberii), foxtail, green (green foxtail, Setaria viridis), goosegrass (Eleusine indica), johnsongrass (Sorghum halepense), ragweed (common ragweed, Ambrosia elatior), barnyardgrass (Echinochloa crus-galli), sandbur (southern sandbur, Cenchrus echinatus), arrowleaf sida (Sida rhombifolia), ryegrass, Italian (Italian ryegrass, Lolium multiflorum), dayflower, VA (Virginia dayflower, Commelina virginica), field bindweed (Convolvulus arvensis), cocklebur (common cocklebur, Xanthium strumarium), morningglory (Ipomoea coccinea), nightshade (eastern black nightshade, Solanum ptycanthum), kochia (Kochia scoparia), nutsedge, yellow (yellow nutsedge, Cyperus esculentus), smartweed (ladysthumb smartweed, Polygonum persicaria), velvetleaf (Abutilon theophrasti), and beggarticks (hairy beggarticks, Bidens pilosa), were planted into a silt loam soil and treated preemergence with test chemicals formulated in a non-phytotoxic solvent mixture which included a surfactant.
(§2) At the same time, plants from these crop and weed species and also waterhemp_RES1, (ALS & Triazine resistant common waterhemp, Amaranthus rudis), and waterhemp_RES2, (ALS & HPPD resistant common waterhemp, Amaranthus rudis) were planted in pots containing Redi-Earth® planting medium (Scotts Company, 14111 Scottslawn Road, Marysville, Ohio 43041) comprising spaghnum peat moss, vermiculite, wetting agent and starter nutrients were treated with postemergence applications of test chemicals formulated in the same manner. Plants ranged in height from 2 to 18 cm for postemergence treatments (1- to 4-leaf stage). Treated plants and controls were maintained in a greenhouse for 14 to 21 d, after which time all species were compared to controls and visually evaluated. Plant response ratings, summarized in Table E, are based on a scale of 0 to 100 where 0 is no effect and 100 is complete control. A dash (-) response means no test result.

soybean (Glycine max) = conditions: scale 0 to 100
Source text: as §1, §2

[1] = test system: beggarticks (hairy beggarticks, Bidens pilosa); conditions: scale 0 to 100
Source text: as §1, §2

[2] = test system: johnsongrass (Sorghum halepense); conditions: Preemergence, scale 0 to 100
Source text: as §1, §2

[3] = test system: panicum, fall (fall panicum, Panicum dichotomiflorum); conditions: scale 0 to 100
Source text: as §1, §2

[4] = test system: foxtail, green (green foxtail, Setaria viridis); conditions: Preemergence, scale 0 to 100
Source text: as §1, §2

[5] = test system: velvetleaf (Abutilon theophrasti); conditions: Preemergence, scale 0 to 100
Source text: as §1, §2

kochia (Kochia scoparia) = conditions: Preemergence, scale 0 to 100
Source text: as §1, §2

[6] = test system: lambsquarters (Chenopodium album); conditions: Preemergence, scale 0 to 100
Source text: as §1, §2

[7] = test system: morningglory (Ipomoea coccinea); conditions: Preemergence, scale 0 to 100
Source text: as §1, §2

[8] = test system: crabgrass, Brazil (Brazilian crabgrass, Digitaria horizontalis); conditions: scale 0 to 100
Source text: as §1, §2

[9] = test system: foxtail, giant (giant foxtail, Setaria faberii); conditions: Preemergence, scale 0 to 100
Source text: as §1, §2

[10] = test system: waterhemp (common waterhemp, Amaranthus rudis); conditions: scale 0 to 100
Source text: as §1, §2

[11] = test system: pigweed, palmer (palmer pigweed, Amaranthus palmeri); conditions: scale 0 to 100
Source text: as §1, §2

[12] = test system: ryegrass, Italian (Italian ryegrass, Lolium multiflorum); conditions: scale 0 to 100
Source text: as §1, §2

[13] = test system: ragweed (common ragweed, Ambrosia elatior); conditions: Preemergence, scale 0 to 100
Source text: as §1, §2

With COc1cc(=O)n(-c2ccc(C(F)(F)F)cc2)nc1Cc1ccnc(C(F)(F)F)c1 [Compound 16, 5-methoxy-2-[4-(trifluoromethyl)phenyl]-6-[[2-(trifluoromethyl)-4-pyridinyl]methyl]-3(2H)-pyridazinone] the “Plant response rating: Corn” value (corn (Zea mays); Postemergence, 62 g ai/ha) was 30, the “Plant response rating: Corn” value (corn (Zea mays); Postemergence, 125 g ai/ha) was 40 and the “Plant response rating: Corn” value (corn (Zea mays); Postemergence, 250 g ai/ha) was 50. For the same compound, the “Plant response rating: Corn” value (corn (Zea mays); Preemergence, 62 g ai/ha) was 40, the “Plant response rating: Corn” value (corn (Zea mays); Preemergence, 125 g ai/ha) was 40 and the “Plant response rating: Corn” value (corn (Zea mays); Preemergence, 250 g ai/ha) was 65. The “Plant response rating: Soybean” value (soybean (Glycine max); Postemergence, 62 g ai/ha) was 35, the “Plant response rating: Soybean” value (soybean (Glycine max); Postemergence, 125 g ai/ha) was 50 and the “Plant response rating: Soybean” value (soybean (Glycine max); Postemergence, 250 g ai/ha) was 85. For the same compound, the “Plant response rating: Soybean” value (soybean (Glycine max); Preemergence, 62 g ai/ha) was 0, the “Plant response rating: Soybean” value (soybean (Glycine max); Preemergence, 125 g ai/ha) was 20 and the “Plant response rating: Soybean” value (soybean (Glycine max); Preemergence, 250 g ai/ha) was 50. For the same compound, the “Plant response rating: Beggarticks” value ([1]; Postemergence, 62 g ai/ha) was 30, the “Plant response rating: Beggarticks” value ([1]; Postemergence, 125 g ai/ha) was 50 and the “Plant response rating: Beggarticks” value ([1]; Postemergence, 250 g ai/ha) was 50. For the same compound, the “Plant response rating: Beggarticks” value ([1]; Preemergence, 62 g ai/ha) was 0, the “Plant response rating: Beggarticks” value ([1]; Preemergence, 125 g ai/ha) was 0 and the “Plant response rating: Beggarticks” value ([1]; Preemergence, 250 g ai/ha) was 20. For the same compound, the “Plant response rating: Johnsongrass” value ([2]; 62 g ai/ha) was 35, the “Plant response rating: Johnsongrass” value ([2]; 125 g ai/ha) was 60 and the “Plant response rating: Johnsongrass” value ([2]; 250 g ai/ha) was 60. The “Plant response rating: Panicum, Fall” value ([3]; Postemergence, 62 g ai/ha) was 30, the “Plant response rating: Panicum, Fall” value ([3]; Postemergence, 125 g ai/ha) was 40 and the “Plant response rating: Panicum, Fall” value ([3]; Postemergence, 250 g ai/ha) was 50. The “Plant response rating: Panicum, Fall” value ([3]; Preemergence, 62 g ai/ha) was 50, the “Plant response rating: Panicum, Fall” value ([3]; Preemergence, 125 g ai/ha) was 90 and the “Plant response rating: Panicum, Fall” value ([3]; Preemergence, 250 g ai/ha) was 100. The “Plant response rating: Foxtail, Green” value ([4]; 62 g ai/ha) was 50, the “Plant response rating: Foxtail, Green” value ([4]; 125 g ai/ha) was 95 and the “Plant response rating: Foxtail, Green” value ([4]; 250 g ai/ha) was 100. The “Plant response rating: Velvetleaf” value ([5]; 62 g ai/ha) was 0, the “Plant response rating: Velvetleaf” value ([5]; 125 g ai/ha) was 0 and the “Plant response rating: Velvetleaf” value ([5]; 250 g ai/ha) was 50. For the same compound, the “Plant response rating: Kochia” value (kochia (Kochia scoparia); 62 g ai/ha) was 98, the “Plant response rating: Kochia” value (kochia (Kochia scoparia); 125 g ai/ha) was 98 and the “Plant response rating: Kochia” value (kochia (Kochia scoparia); 250 g ai/ha) was 98. For the same compound, the “Plant response rating: Lambsquarters” value ([6]; 62 g ai/ha) was 98, the “Plant response rating: Lambsquarters” value ([6]; 125 g ai/ha) was 98 and the “Plant response rating: Lambsquarters” value ([6]; 250 g ai/ha) was 100. The “Plant response rating: Morningglory” value ([7]; 62 g ai/ha) was 25, the “Plant response rating: Morningglory” value ([7]; 125 g ai/ha) was 65 and the “Plant response rating: Morningglory” value ([7]; 250 g ai/ha) was 80. The “Plant response rating: Crabgrass, Brazil” value ([8]; Postemergence, 62 g ai/ha) was 20, the “Plant response rating: Crabgrass, Brazil” value ([8]; Postemergence, 125 g ai/ha) was 30 and the “Plant response rating: Crabgrass, Brazil” value ([8]; Postemergence, 250 g ai/ha) was 50. For the same compound, the “Plant response rating: Crabgrass, Brazil” value ([8]; Preemergence, 62 g ai/ha) was 100, the “Plant response rating: Crabgrass, Brazil” value ([8]; Preemergence, 125 g ai/ha) was 100 and the “Plant response rating: Crabgrass, Brazil” value ([8]; Preemergence, 250 g ai/ha) was 100. For the same compound, the “Plant response rating: Foxtail, Giant” value ([9]; 62 g ai/ha) was 75, the “Plant response rating: Foxtail, Giant” value ([9]; 125 g ai/ha) was 90 and the “Plant response rating: Foxtail, Giant” value ([9]; 250 g ai/ha) was 100. The “Plant response rating: Waterhemp” value ([10]; Postemergence, 62 g ai/ha) was 80, the “Plant response rating: Waterhemp” value ([10]; Postemergence, 125 g ai/ha) was 80 and the “Plant response rating: Waterhemp” value ([10]; Postemergence, 250 g ai/ha) was 100. For the same compound, the “Plant response rating: Waterhemp” value ([10]; Preemergence, 62 g ai/ha) was 100, the “Plant response rating: Waterhemp” value ([10]; Preemergence, 125 g ai/ha) was 100 and the “Plant response rating: Waterhemp” value ([10]; Preemergence, 250 g ai/ha) was 100. The “Plant response rating: Pigweed, Palmer” value ([11]; Postemergence, 62 g ai/ha) was 70, the “Plant response rating: Pigweed, Palmer” value ([11]; Postemergence, 125 g ai/ha) was 75 and the “Plant response rating: Pigweed, Palmer” value ([11]; Postemergence, 250 g ai/ha) was 95. The “Plant response rating: Pigweed, Palmer” value ([11]; Preemergence, 62 g ai/ha) was 98, the “Plant response rating: Pigweed, Palmer” value ([11]; Preemergence, 125 g ai/ha) was 98 and the “Plant response rating: Pigweed, Palmer” value ([11]; Preemergence, 250 g ai/ha) was 98. The “Plant response rating: Ryegrass, Italian” value ([12]; Postemergence, 62 g ai/ha) was 20, the “Plant response rating: Ryegrass, Italian” value ([12]; Postemergence, 125 g ai/ha) was 20 and the “Plant response rating: Ryegrass, Italian” value ([12]; Postemergence, 250 g ai/ha) was 40. For the same compound, the “Plant response rating: Ryegrass, Italian” value ([12]; Preemergence, 62 g ai/ha) was 20, the “Plant response rating: Ryegrass, Italian” value ([12]; Preemergence, 125 g ai/ha) was 20 and the “Plant response rating: Ryegrass, Italian” value ([12]; Preemergence, 250 g ai/ha) was 50. For the same compound, the “Plant response rating: Ragweed” value ([13]; 62 g ai/ha) was 0, the “Plant response rating: Ragweed” value ([13]; 125 g ai/ha) was 0 and the “Plant response rating: Ragweed” value ([13]; 250 g ai/ha) was 95.
